Laboratory results published in patent US8426429B2, “2-amino-quinazoline derivatives useful as inhibitors of β-secretase (BACE)” (Jansssen Pharmaceutica N.V., priority 2004, dated 2013).

Target: T1, β-secretase (BACE) (Homo sapiens, UniProt P56817)
T1 construct: purchased Panvera
Experiment: BACE FS1 % Inhibition Assay
Format: biochemical
Outline: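 Percent inhibition per compound concentration was referenced to vehicle-treated enzyme and no-enzyme wells. Enzyme at a 4 μg/mL working stock plus compound was mixed for 20 min at room temperature before the FS1 substrate (300 μg/mL working stock) was added for a 1 h room-temperature reaction.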

T1 sequence (P56817 46-501): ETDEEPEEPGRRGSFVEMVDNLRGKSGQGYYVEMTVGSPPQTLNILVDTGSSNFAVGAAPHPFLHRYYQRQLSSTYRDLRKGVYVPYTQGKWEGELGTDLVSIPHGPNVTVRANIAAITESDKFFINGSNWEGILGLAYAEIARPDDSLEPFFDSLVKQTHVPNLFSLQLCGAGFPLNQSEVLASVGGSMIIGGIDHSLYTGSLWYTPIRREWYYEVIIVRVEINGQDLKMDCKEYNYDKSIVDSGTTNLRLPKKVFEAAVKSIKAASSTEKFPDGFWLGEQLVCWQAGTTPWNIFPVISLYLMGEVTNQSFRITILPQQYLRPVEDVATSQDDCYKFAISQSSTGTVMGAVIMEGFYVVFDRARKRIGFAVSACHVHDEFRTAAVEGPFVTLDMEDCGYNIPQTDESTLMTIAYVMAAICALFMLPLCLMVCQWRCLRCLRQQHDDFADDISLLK

For `CN(C(=O)c1cccc(CN2Cc3cc(Nc4ccc5c(c4)OCO5)ccc3N=C2N)c1)C1CCCCC1` [Compound 441], the “% Inhibition (FS)” value (0.3 μM test compound) was under 30%, the “% Inhibition (FS)” value (1 μM test compound) was 29% and the “% Inhibition (FS)” value (3 μM test compound) was 48%.

For `CN1CCCC1CCNC(=O)c1cccc(CN2Cc3cc(Oc4ccccc4)ccc3N=C2N)c1` (centres unmarked) [Compound 222], the “% Inhibition (FS)” value (0.3 μM test compound) was under 30%, the “% Inhibition (FS)” value (1 μM test compound) was under 30% and the “% Inhibition (FS)” value (3 μM test compound) was under 30%.

`NC1=Nc2ccc(Oc3ccccc3)cc2CN1C(CNC(=O)C1CCCCC1)Cc1ccc(O)cc1` (centres unmarked) [Compound 614] was tested, and the “% Inhibition (FS)” value (0.3 μM test compound) was under 30%, the “% Inhibition (FS)” value (1 μM test compound) was under 30% and the “% Inhibition (FS)” value (3 μM test compound) was under 30%.

In the case of `CC(C)(C)c1ccc(C(=O)NCCN2Cc3cc(Oc4ccccc4)ccc3N=C2N)cc1` [Compound 156], the “% Inhibition (FS)” value (3 μM test compound) is reported as under 30% and the “% Inhibition (FS)” value (10 μM test compound) is reported as 40%.

For `NC1=Nc2ccc(Oc3ccccc3)cc2CN1CCNC(=O)C(c1ccccc1)c1ccccc1` [Compound 207], the “% Inhibition (FS)” value (0.3 μM test compound) was 48%, the “% Inhibition (FS)” value (1 μM test compound) was 90% and the “% Inhibition (FS)” value (3 μM test compound) was 108%.

For `CC(C)(C)OC(=O)N1CCCCC(N2Cc3cc(Oc4ccccc4)ccc3N=C2N)C1` (centres unmarked) [Compound 510], the “% Inhibition (FS)” value (0.3 μM test compound) was under 30%, the “% Inhibition (FS)” value (1 μM test compound) was under 30% and the “% Inhibition (FS)” value (3 μM test compound) was 37%.

`COc1ccccc1-c1ccc2c(c1)CN(CCNC(=O)C1CCOCC1)C(N)=N2` [Compound 697] was tested, and the “% Inhibition (FS)” value (0.3 μM compound, FS1 substrate) was under 30%, the “% Inhibition (FS)” value (1 μM compound, FS1 substrate) was under 30% and the “% Inhibition (FS)” value (3 μM compound, FS1 substrate) was 63%.

With `NC1=Nc2ccc(-c3ccc4ccccc4c3)cc2CN1CCNC(=O)C1CCC1` [Compound 663] the “% Inhibition (FS)” value (0.3 μM compound, FS1 substrate) was under 30%, the “% Inhibition (FS)” value (1 μM compound, FS1 substrate) was under 30% and the “% Inhibition (FS)” value (3 μM compound, FS1 substrate) was under 30%.

In the case of `CC(CC(=O)NCCN1Cc2cc(-c3ccccc3Cl)ccc2N=C1N)C(F)(F)F` (centres unmarked) [Compound 683], the “% Inhibition (FS)” value (0.3 μM compound, FS1 substrate) is reported as 64% and the “% Inhibition (FS)” value (1 μM compound, FS1 substrate) is reported as 86%.

With `CC(=O)Nc1ccc(C(=O)NCCN2Cc3cc(-c4cccc(C(F)(F)F)c4)ccc3N=C2N)cc1` [Compound 594] the “% Inhibition (FS)” value (0.3 μM test compound) was under 30%, the “% Inhibition (FS)” value (1 μM test compound) was under 30% and the “% Inhibition (FS)” value (3 μM test compound) was under 30%.

With `COc1ccccc1-c1ccc2c(c1)CN(CCNC(=O)C1(C(N)=O)CC1)C(N)=N2` [Compound 488] the “% Inhibition (FS)” value (0.3 μM test compound) was under 30%, the “% Inhibition (FS)” value (1 μM test compound) was under 30% and the “% Inhibition (FS)” value (3 μM test compound) was under 30%.

For `CN(C(=O)c1cccc(CN2Cc3cc(Oc4ccccc4S(C)(=O)=O)ccc3N=C2N)c1)C1CCCCC1` [Compound 472], the “% Inhibition (FS)” value (0.3 μM test compound) was under 30%, the “% Inhibition (FS)” value (1 μM test compound) was under 30% and the “% Inhibition (FS)” value (3 μM test compound) was under 30%.

For `CCCC=Cc1ccc2c(c1)CN(CCNC(=O)c1cccc(C#N)c1)C(N)=N2` [Compound 568], the “% Inhibition (FS)” value (0.3 μM test compound) was under 30%, the “% Inhibition (FS)” value (1 μM test compound) was under 30% and the “% Inhibition (FS)” value (3 μM test compound) was under 30%.

In the case of `CN(C(=O)CC[C@@H](C1CCOCC1)N1Cc2cc(Oc3ccccc3)ccc2N=C1N)[C@H]1CC[C@@H](C(=O)O)CC1` [Compound 748], the “% Inhibition (FS)” value (0.3 μM compound, FS1 substrate, 0.3 µM) is reported as 20%, the “% Inhibition (FS)” value (1 μM compound, FS1 substrate, 1 µM) is reported as 71% and the “% Inhibition (FS)” value (3 μM compound, FS1 substrate, 3 µM) is reported as 97%.

In the case of `CCCC(=O)NCCN1Cc2cc(-c3cnc4ccccc4c3)ccc2N=C1N` [Compound 673], the “% Inhibition (FS)” value (0.3 μM compound, FS1 substrate) is reported as 34%, the “% Inhibition (FS)” value (1 μM compound, FS1 substrate) is reported as under 30% and the “% Inhibition (FS)” value (3 μM compound, FS1 substrate) is reported as under 30%.

In the case of `CC(=O)Nc1cccc(-c2ccc3c(c2)CN(Cc2cccc(C(=O)N(C)C4CCCCC4)c2)C(N)=N3)c1` [Compound 166], the “% Inhibition (FS)” value (0.3 μM test compound) is reported as under 30%, the “% Inhibition (FS)” value (1 μM test compound) is reported as 37% and the “% Inhibition (FS)” value (3 μM test compound) is reported as 74%.

`NC1=Nc2ccc(-c3ccccc3Cl)cc2CN1CCNC(=O)CCC(F)(F)F` [Compound 682] was tested, and the “% Inhibition (FS)” value (0.3 μM compound, FS1 substrate) was 39%, the “% Inhibition (FS)” value (1 μM compound, FS1 substrate) was 77% and the “% Inhibition (FS)” value (3 μM compound, FS1 substrate) was 97%.

`CCCC=Cc1ccc2c(c1)CN(CCNC(=O)C(C)(C)C)C(N)=N2` [Compound 574] was tested, and the “% Inhibition (FS)” value (0.3 μM test compound) was under 30%, the “% Inhibition (FS)” value (1 μM test compound) was under 30% and the “% Inhibition (FS)” value (3 μM test compound) was under 30%.

`CCCC(=O)NCCN1Cc2cc(-c3cncnc3)ccc2N=C1N` [Compound 569] was tested, and the “% Inhibition (FS)” value (0.3 μM test compound) was under 30%, the “% Inhibition (FS)” value (1 μM test compound) was under 30% and the “% Inhibition (FS)” value (3 μM test compound) was under 30%.

For `COC(=O)C1CCCC(N(C)C(=O)CCC(C2CCCCC2)N2Cc3cc(Oc4ccccc4)ccc3N=C2N)C1` (mixture of isomers) [Compound 777], the “% Inhibition (FS)” value (0.3 μM compound, FS1 substrate) was 38% and the “% Inhibition (FS)” value (1 μM compound, FS1 substrate) was 97%.

With `CC(=O)c1ccccc1-c1ccc2c(c1)CN(Cc1cccc(C(=O)N(C)C3CCCCC3)c1)C(N)=N2` [Compound 323] the “% Inhibition (FS)” value (0.3 μM test compound) was under 30%, the “% Inhibition (FS)” value (1 μM test compound) was under 30% and the “% Inhibition (FS)” value (3 μM test compound) was 45%.

`CC(C)CCC(=O)NCC(Cc1ccc(O)cc1)N1Cc2cc(Oc3ccccc3)ccc2N=C1N` (centres unmarked) [Compound 615] was tested, and the “% Inhibition (FS)” value (0.3 μM test compound) was under 30%, the “% Inhibition (FS)” value (1 μM test compound) was under 30% and the “% Inhibition (FS)” value (3 μM test compound) was under 30%.

For `Cc1cc(C)cc(Sc2ccc3c(c2)CN(Cc2cccc(C(=O)N(C)C4CCCCC4)c2)C(N)=N3)c1` [Compound 409], the “% Inhibition (FS)” value (0.3 μM test compound) was under 30%, the “% Inhibition (FS)” value (1 μM test compound) was under 30% and the “% Inhibition (FS)” value (3 μM test compound) was 72%.

With `NC1=Nc2ccc(Oc3ccccc3)cc2CN1C1c2ccccc2-c2c(C(=O)N(C3CCCCC3)C3CCCCC3)cccc21` (centres unmarked) [Compound 147] the “% Inhibition (FS)” value (3 μM test compound) was under 30% and the “% Inhibition (FS)” value (10 μM test compound) was 71%.

With `NC1=Nc2ccc(-c3ccccc3F)cc2CN1CCNC(=O)C1CCCC1` [Compound 643] the “% Inhibition (FS)” value (0.3 μM test compound) was 74%, the “% Inhibition (FS)” value (1 μM test compound) was 92% and the “% Inhibition (FS)” value (3 μM test compound) was 110%.

With `CCCCC(CC)C(=O)NCC(C1CCCCC1)N1Cc2cc(Oc3ccccc3)ccc2N=C1N` (centres unmarked) [Compound 303] the “% Inhibition (FS)” value (0.3 μM test compound) was under 30%, the “% Inhibition (FS)” value (1 μM test compound) was 70% and the “% Inhibition (FS)” value (3 μM test compound) was 109%.

For `COc1cccc(F)c1-c1ccc2c(c1)CN(CCNC(=O)C1CCC(C(F)(F)F)CC1)C(N)=N2` (centres unmarked) [Compound 700], the “% Inhibition (FS)” value (0.3 μM compound, FS1 substrate) was under 30%, the “% Inhibition (FS)” value (1 μM compound, FS1 substrate) was 36% and the “% Inhibition (FS)” value (3 μM compound, FS1 substrate) was 85%.

For `NC1=Nc2ccc(-c3ccccc3F)cc2CN1CCNC(=O)C1CCC(C(F)(F)F)CC1` (centres unmarked) [Compound 688], the “% Inhibition (FS)” value (0.3 μM compound, FS1 substrate) was under 30%, the “% Inhibition (FS)” value (1 μM compound, FS1 substrate) was 36% and the “% Inhibition (FS)” value (3 μM compound, FS1 substrate) was 81%.

With `NC1=Nc2ccc(-c3ccccc3F)cc2CN1CCNC(=O)C1CCOCC1` [Compound 687] the “% Inhibition (FS)” value (0.3 μM compound, FS1 substrate) was under 30%, the “% Inhibition (FS)” value (1 μM compound, FS1 substrate) was 50% and the “% Inhibition (FS)” value (3 μM compound, FS1 substrate) was 87%.

`CN(C(=O)c1cccc(CN2Cc3cc([S+]([O-])c4ccccc4)ccc3N=C2N)c1)C1CCCCC1` (centres unmarked) [Compound 549] was tested, and the “% Inhibition (FS)” value (0.3 μM test compound) was under 30%, the “% Inhibition (FS)” value (1 μM test compound) was 30% and the “% Inhibition (FS)” value (3 μM test compound) was 71%.

For `NC1=Nc2ccc(-c3cncnc3)cc2CN1CCNC(=O)C1CCCCC1` [Compound 575], the “% Inhibition (FS)” value (0.3 μM test compound) was under 30%, the “% Inhibition (FS)” value (1 μM test compound) was under 30% and the “% Inhibition (FS)” value (3 μM test compound) was under 30%.

In the case of `COc1ccc(-c2nc3ccccc3s2)c(Oc2ccc3c(c2)CN(Cc2cccc(C(=O)N(C)C4CCCCC4)c2)C(N)=N3)c1` [Compound 469], the “% Inhibition (FS)” value (0.3 μM test compound) is reported as under 30%, the “% Inhibition (FS)” value (1 μM test compound) is reported as under 30% and the “% Inhibition (FS)” value (3 μM test compound) is reported as under 30%.

`CC(C)C(CC(=O)N(C)C1CCCCC1)N1Cc2cc(Oc3ccccc3)ccc2N=C1N` (centres unmarked) [Compound 201] was tested, and the “% Inhibition (FS)” value (0.3 μM test compound) was under 30%, the “% Inhibition (FS)” value (1 μM test compound) was under 30% and the “% Inhibition (FS)” value (3 μM test compound) was 66%.

For `CCCC=Cc1ccc2c(c1)CN(CCNC(=O)c1ccc(NC(C)=O)cc1)C(N)=N2` [Compound 592], the “% Inhibition (FS)” value (0.3 μM test compound) was under 30%, the “% Inhibition (FS)” value (1 μM test compound) was under 30% and the “% Inhibition (FS)” value (3 μM test compound) was under 30%.

In the case of `NC1=Nc2ccc(Oc3ccccc3)cc2CN1CC1CCN(C(=O)C2CCCCC2)CC1` [Compound 525], the “% Inhibition (FS)” value (0.3 μM test compound) is reported as under 30%, the “% Inhibition (FS)” value (1 μM test compound) is reported as under 30% and the “% Inhibition (FS)” value (3 μM test compound) is reported as 70%.

`COc1ccccc1-c1ccc2c(c1)CN(Cc1cccc(C(=O)N(C)C3CCCCC3)c1)C(NC(C)=O)=N2` [Compound 607] was tested, and the “% Inhibition (FS)” value (0.3 μM test compound) was 94%, the “% Inhibition (FS)” value (1 μM test compound) was 116% and the “% Inhibition (FS)” value (3 μM test compound) was 123%.

With `CCCC=Cc1ccc2c(c1)CN(CCNC(=O)CCC)C(N)=N2` [Compound 571] the “% Inhibition (FS)” value (0.3 μM test compound) was under 30%, the “% Inhibition (FS)” value (1 μM test compound) was under 30% and the “% Inhibition (FS)” value (3 μM test compound) was under 30%.

In the case of `CC1CCC(N(C(=O)c2cccc(CN3Cc4cc(Oc5ccccc5)ccc4N=C3N)c2)C2CCC(C)CC2)CC1` (centres unmarked) [Compound 187], the “% Inhibition (FS)” value (0.3 μM test compound) is reported as under 30%, the “% Inhibition (FS)” value (1 μM test compound) is reported as under 30% and the “% Inhibition (FS)” value (3 μM test compound) is reported as 39%.

With `NC1=Nc2ccc(-c3ccncc3)cc2CN1CCNC(=O)C1CCCCC1` [Compound 576] the “% Inhibition (FS)” value (0.3 μM test compound) was under 30%, the “% Inhibition (FS)” value (1 μM test compound) was under 30% and the “% Inhibition (FS)” value (3 μM test compound) was under 30%.

For `COc1ccccc1-c1cc2c(cc1F)CN(CCC(=O)NC1C3CC4CC(C3)CC1C4)C(N)=N2` (centres unmarked) [Compound 620], the “% Inhibition (FS)” value (0.3 μM test compound) was under 30%, the “% Inhibition (FS)” value (1 μM test compound) was under 30% and the “% Inhibition (FS)” value (3 μM test compound) was 37%.
